Reference: patent US20080138411A1, “Modified Release Formulations Of Selective Serotonin Re-Uptake Inhibitors” (priority 2002, published 2008)
Where a name gives a salt, the structure may show the parent alone. Read-outs that look alike come from different tables or passages of the source. Values belong to the compound of their own block, whether it stands above or below them.

Experiments:
[1] = cited from earlier work
[2] = Particle size measurement of Citalopram HBr, Paroxetine HCl and Fluoxetine HCl; assay type: physicochemical; conditions: for D (v, 0.9) / D (v. 0.1) / Mean, D [4, 3] / Median, D (v, 0.5) / Span / Uniformity: Dispersed in air, Distribution Type: Volume
Protocol: Particle size measurements were conducted on Paroxetine HCl.

[3] = cited from earlier work; remark: listed apart in the source
[4] = cited from earlier work; remark: listed apart in the source
[5] = cited from earlier work; remark: listed apart in the source
[6] = 30 mg tablets daily for 30 days, normal male subjects
[7] = 30 mg tablets daily for 30 days
[8] = single dose with and without food

Compound: CN(C)CCCC1(c2ccc(F)cc2)OCc2cc(C#N)ccc21 (racemic) [Citalopram, (RS)-1-[3-(dimethylamino)propyl]-1-(4-fluorophenyl)-5-phthalancarbonitrile hydrobromide]
absolute bioavailability ([1]; relative to an intravenous dose): about 80%
time at which peak blood levels occur ([1]; single oral dose (40 mg tablet)): about 4 hours

Compound: Br.CN(C)CCCC1(c2ccc(F)cc2)OCc2cc(C#N)ccc21 (centres unmarked) [Citalopram HBr Provided by Supplier 1]
Dia.on % (10.0%) ([2]; Dist. Base: Volume): 3.267 µm
Dia.on % (20.0%) ([2]; Dist. Base: Volume): 4.606 µm
Dia.on % (35.0%) ([2]; Dist. Base: Volume): 6.212 µm
Dia.on % (70.0%) ([2]; Dist. Base: Volume): 10.295 µm
Dia.on % (90.0%) ([2]; Dist. Base: Volume): 14.874 µm
Particle size, C.V. ([2]; Dist. Base: Volume): 54.90%
Particle size, Mean ([2]; Dist. Base: Volume): 8.569 µm
Particle size, Median ([2]; Dist. Base: Volume): 7.781 µm
Particle size, Mode ([2]; Dist. Base: Volume): 8,253 µm
SP. Area ([2]; Dist. Base: Volume): 10290 cm^2/cm^2
Span: (D 20.0-D 10.0)/D50 ([2]; Dist. Base: Volume): Span: (D 20.0-D 10.0)/D50 = 0.172

Compound: Br.CN(C)CCCC1(c2ccc(F)cc2)OCc2cc(C#N)ccc21 (centres unmarked) [Citalopram HBr Provided by Supplier 2]
D (v, 0.9) [2]: 1191.10 µm
D (v. 0.1) [2]: 1.62 µm
Mean, D [4, 3] [2]: Mean, D [4, 3] = 259.27 µm
Median, D (v, 0.5) [2]: 7.27 µm
Span [2]: Span = 1.637E+02
Uniformity [2]: Uniformity = 3.518E+01

Compound: CN(C)CCC[C@@]1(c2ccc(F)cc2)OCc2cc(C#N)ccc21 [Escitalopram, S-(+)-1-[3-(dimethyl-amino)propyl]-1-(β-fluorophenyl)-5-phthalancarbonitrile oxalate]
single and multiple dose pharmacokinetics ([3]; dose range of 10 to 30 mg per day): linear and dose proportional
mean Tmax ([3]; single oral dose (20 mg tablet)): 5 ± 1.5 h

Dia.on % (10.0%) ([2]; Dist. Base: Volume): 7.877 µm
Dia.on % (20.0%) ([2]; Dist. Base: Volume): 10.941 µm
Dia.on % (35.0%) ([2]; Dist. Base: Volume): 15.114 µm
Dia.on % (70.0%) ([2]; Dist. Base: Volume): 29.4885 µm
Dia.on % (90.0%) ([2]; Dist. Base: Volume): 118.199 µm
Particle size, C.V. ([2]; Dist. Base: Volume): 161.24%
Particle size, Mean ([2]; Dist. Base: Volume): 45.505 µm
Particle size, Median ([2]; Dist. Base: Volume): 19.672 µm
SP. Area ([2]; Dist. Base: Volume): 3861 cm^2/cm^2
Compound: CNCCC(Oc1ccc(C(F)(F)F)cc1)c1ccccc1.Cl (centres unmarked) [Fluoxetine HCl Provided by Supplier 1]

Dia.on % (10.0%) ([2]; Dist. Base: Volume): 5.668 µm
Dia.on % (20.0%) ([2]; Dist. Base: Volume): 9.337 µm
Dia.on % (35.0%) ([2]; Dist. Base: Volume): 14.546 µm
Dia.on % (70.0%) ([2]; Dist. Base: Volume): 42.5575 µm
Dia.on % (90.0%) ([2]; Dist. Base: Volume): 296.388 µm
Particle size, C.V. ([2]; Dist. Base: Volume): 144.70%
Particle size, Mean ([2]; Dist. Base: Volume): 86.383 µm
Particle size, Median ([2]; Dist. Base: Volume): 20.638 µm
SP. Area ([2]; Dist. Base: Volume): 5004 cm^2/cm^2
Compound: CNCCC(Oc1ccc(C(F)(F)F)cc1)c1ccccc1.Cl (centres unmarked) [Fluoxetine HCl Provided by Supplier 2]

D (v, 0.9) [2]: D (v, 0.9) = 16.56 µm
D (v. 0.1) [2]: D (v. 0.1) = 0.85 […]mMedian,
Mean, D [4, 3] [2]: Mean, D [4, 3] = 11.02 µm
Median, D (v, 0.5) [2]: D (v, 0.5) = 4.44 µm
Span [2]: Span = 3.541E+00
Uniformity [2]: Uniformity = 1.980E+00
Compound: Fc1ccc([C@@H]2CCNC[C@H]2COc2ccc3c(c2)OCO3)cc1 [Paroxetine, (−)-trans-4R-(4′-fluorophenyl)-3S[(3′,4′-methylenedioxyphenoxy)methyl]piperidine hydrochloride (hemihydrate)]
Cmax at steady state, mean [4, 6]: 61.7 ng/mL
Cmin at steady state, mean [4, 6]: 30.7 ng/mL
Tmax at steady state, mean [4, 6]: 5.2 h
t1/2 at steady state, mean [4, 6]: 21.0 h
steady state Cmax relative to prediction from single dose studies [4, 7]: about 6 times
steady state Cmin relative to prediction from single dose studies [4, 7]: ~14 times
steady state drug exposure based on AUC0-24 relative to prediction from single dose data [4, 7]: about 8 times
time to steady state Paroxetine concentrations ([4]; 30 mg tablets daily, most subjects): approximately 10 days
increase of AUC when administered with food [4, 8]: 6%
increase of Cmax when administered with food [4, 8]: 29%
time to reach peak plasma concentration ([4]; single dose with food): 4.9 h
time to reach peak plasma concentration ([4]; single dose without food): 6.4 h

Compound: CN[C@H]1CC[C@@H](c2ccc(Cl)c(Cl)c2)c2ccccc21.Cl [Sertraline, (1S-cis)-4(3,4-dichlorophenyl)-1,2,3,4-tetrahydro-N-methyl-1-naphthalenamine hydrochloride]
Tmax ([5]; oral concentrate, single dose with food): 7.0 h
increase of Cmax with food ([5]; tablet, single dose with and without food): 25%
